Test results reported in patent US8242118B2, “Arylsulfonamide derivatives for use as CCR3 antagonists in the treatment of inflammatory and immunological disorders” (Axikin Pharmaceuticals Inc., priority 2001, dated 2012).

Columns and labels:
Human CCR3 = biological target: T1, Human CCR3 (Homo sapiens, UniProt P51677); test: Receptor binding assay (RBA), [125I]-eotaxin; details: human CCR3-transformed K562 cells, 0.1 nM [125I]-eotaxin; compounds of about 40 to 90% purity; read-out: Activity grade RBA (IC50 class)
T1 construct: The cloned CCR3 cDNA was constructed with pcDNA3 vector and transfected into a IC562 cell line; expressed in transfected cells
T1 sequence (P51677 1-355): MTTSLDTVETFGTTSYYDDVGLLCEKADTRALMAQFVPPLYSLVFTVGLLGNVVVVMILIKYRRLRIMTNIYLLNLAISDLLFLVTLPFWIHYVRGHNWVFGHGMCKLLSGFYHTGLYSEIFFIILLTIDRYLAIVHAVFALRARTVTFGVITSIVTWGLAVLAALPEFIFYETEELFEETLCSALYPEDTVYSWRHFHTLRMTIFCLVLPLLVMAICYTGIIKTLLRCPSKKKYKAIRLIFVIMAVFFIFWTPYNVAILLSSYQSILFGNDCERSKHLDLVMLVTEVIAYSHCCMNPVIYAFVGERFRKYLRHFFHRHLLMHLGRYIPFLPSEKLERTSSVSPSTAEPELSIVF
In short: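 Butyrate-pretreated (5 mM, 20-24 h) CCR3-transfected K562 cells incubated 1 h at room temperature with compound and 0.1 nM final [125I]-eotaxin in HEPES pH 7.6 buffer; bound radioactivity counted after filtration. Non-specific binding with 500 nM unlabeled eotaxin; IC50 from inhibition curve.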

Structure (SMILES)	IC50 (Human CCR3) [µM]	melting point [°C]
Cl.O=[N+]([O-])c1ccc(Oc2cc(Cl)cc(Cl)c2)c(S(=O)(=O)N2CCCNCC2)c1 [Example 1-91]	< 1	261 to 263
Cl.N[C@H]1CCN(S(=O)(=O)c2cc([N+](=O)[O-])ccc2Oc2cc(Cl)cc(Cl)c2)C1 [Example 1-100]	< 1	256 to 258
Cc1cc(C)cc(Oc2ccc(NC(=O)Cc3ccccc3)cc2S(=O)(=O)N2CCNCC2)c1 [Example 7-1, N-[4-(3,5-dimethylphenoxy)-3-(1-piperazinylsulfonyl)phenyl]-2-phenylacetamide]	> 10	228 to 230
CN(CCN1CCCCC1)S(=O)(=O)c1cc([N+](=O)[O-])ccc1Sc1cc(Cl)cc(Cl)c1 [Example 26-1, 2-[(3,5-dichlorophenyl)sulfanyl]-N-methyl-5-nitro-N-[2-(1-piperidinyl)ethyl]benzenesulfonamide]	< 1	113 to 114
